Results from patent publication US20230138395A1, “PHARMACEUTICAL COMPOSITIONS OF A THERAPEUTIC POLYENE MACROLIDE AND METHODS OF THEIR USE” (priority 2020, published 2023).
≈ marks a conversion by molar mass, not a printed value. Where “and” joins values, the source holds several entries; their conditions need not be identical. Identical values can stand only once.

Experiments:
Candida albicans [1] = assay: MIC testing (CLSI M27-A3); assay type: cell-based; set-up: MIC: unit not given beside the values; settings: for MIC Range: in µg/mL
Candida albicans [2] = assay: MFC determination; assay type: cell-based
C. glabrata strains [3] = assay: MIC testing (CLSI M27-A3); assay type: cell-based; set-up: MIC: unit not given beside the values
C. glabrata strains [4] = assay: MFC determination; assay type: cell-based; set-up: MFC: unit not given beside the values
C. krusei strains [5] = assay: MIC testing (CLSI M27-A3); assay type: cell-based
C. krusei strains [6] = assay: MFC determination; assay type: cell-based
C. parapsilosis = assay: MIC testing (CLSI M27-A3); assay type: cell-based; set-up: MIC: unit not given beside the values
all Candida strains [7] = assay: MIC testing (CLSI M27-A3), summary; assay type: cell-based
all Candida strains [8] = assay: MFC determination, summary; assay type: cell-based
Cr. neoformans strains [9] = assay: MIC testing (CLSI M27-A3, YNB, 72 h); assay type: cell-based, Cryptococcus neoformans
Cr. neoformans strains [10] = assay: MFC determination; assay type: cell-based, Cryptococcus neoformans; settings: Cr. neoformans
[11] = test system: individual Aspergillus spp. (Table 12, species not named); assay: MIC testing (CLSI M38-A2), Table 12; assay type: cell-based; settings: Aspergillus sp. of Table 12, caspofungin read as MEC
[12] = test system: individual Aspergillus spp. (Table 14, species not named); assay: MIC testing (CLSI M38-A2), Table 14; assay type: cell-based; settings: Aspergillus sp. of Table 14, caspofungin read as MEC
[13] = test system: individual Aspergillus spp. (Table 14, species not named); assay: MFC determination, Table 14; assay type: cell-based; settings: Aspergillus sp. of Table 14
[14] = test system: individual Aspergillus spp. (Table 15, species not named); assay: MFC determination, Table 15; assay type: cell-based; settings: Aspergillus sp. of Table 15
[15] = test system: all Aspergillus strains tested; assay: MFC determination, summary; assay type: cell-based
Fusarium strains = assay: MIC testing (CLSI M38-A2), Table 17; assay type: cell-based, Fusarium spp.; settings: Fusarium strains (Table 17)
[16] = test system: Fusarium strains (Table 18); assay: MIC testing (CLSI M38-A2), Table 18; assay type: cell-based, Fusarium spp.
[17] = test system: Fusarium strains (Table 18); assay: MFC determination, Table 18; assay type: cell-based, Fusarium spp.
Penicillium strains [18] = assay: MIC testing (CLSI M38-A2); assay type: cell-based, Penicillium spp.; settings: Penicillium
Penicillium strains [19] = assay: MFC determination; assay type: cell-based, Penicillium spp.
A. fumigatus AF91 = assay: In vitro activity (MIC) against the infecting strain, Example 17; assay type: cell-based, Aspergillus fumigatus; settings: Aspergillus fumigatus, minimum effective concentration, read-out: MIC read as MEC
C. albicans SC5314 = assay: In vitro activity (MFC) against the infecting strain, Example 18; assay type: cell-based, Candida albicans; settings: Candida albicans, read-out: MFC
Candida albicans SC5314 = assay: Disseminated candidiasis in immunocompromised murine model (BALB/c mice): tissue fungal burden; assay type: in vivo; settings: Experiment I; 0.35 mg/kg i.v., 7 days
[20] = test system: Aspergillus fumigatus AF91; assay: Disseminated Aspergillosis in immunocompromised murine model (CD-1 mice): tissue fungal burden; settings: Experiment I; 1.0 mg/kg i.v., 7 days
[21] = individual C. albicans strain with elevated MICs to non-polyene comparators (Table 22), listed as Cas
[22] = individual C. glabrata strain with elevated MICs to non-polyene comparators (Table 22), listed as Cas
[23] = individual C. krusei strain with elevated MICs to non-polyene comparators (Table 22)

In the case of `CC[C@H](C)C[C@H](C)CCCCCCCCC(=O)N[C@H]1C[C@@H](O)[C@@H](NCCN)NC(=O)[C@@H]2[C@@H](O)CCN2C(=O)[C@H]([C@H](O)CCN)NC(=O)[C@H]([C@H](O)[C@@H](O)c2ccc(O)cc2)NC(=O)[C@@H]2C[C@@H](O)CN2C(=O)[C@H]([C@@H](C)O)NC1=O` [Caspofungin, caspofungin], the “MIC Range” value (Candida albicans [1]; Fluconazole-resistant C. albicans n = 7) is reported as 0.125-2, the “MIC Range” value (Candida albicans [1]; Fluconazole-susceptible C. albicans n = 13) is reported as 0.125-0.25 and the MIC50 (Candida albicans [1]; Fluconazole-susceptible C. albicans n = 13, inhibits 50% of strains) is reported as 0.25 mg/L (≈ 0.229 µM). For the same compound, the MIC90 (Candida albicans [1]; Fluconazole-susceptible C. albicans n = 13, inhibits 90% of strains) was 0.25 mg/L (≈ 0.229 µM), the MIC (Candida albicans [1]; [21]) was 1 (2×) and 2 and the “MFC Range” value (Candida albicans [2]; Fluconazole-susceptible C. albicans n = 13, in µg/mL) was 0.5-32. The MFC50 (Candida albicans [2]; Fluconazole-susceptible C. albicans n = 13, kills 50% of strains) was 0.25 mg/L (≈ 0.229 µM), the MFC90 (Candida albicans [2]; Fluconazole-susceptible C. albicans n = 13, kills 90% of strains) was 2 mg/L (≈ 1.83 µM) and the MFC (Candida albicans [2]; [21]) was >32 (2×) and 32. The “MIC Range” value (C. glabrata strains [3]; C. glabrata strains, in µg/mL) was 0.25-8, the MIC50 (C. glabrata strains [3]; C. glabrata, inhibits 50% of strains) was 0.5 mg/L (≈ 0.457 µM) and the MIC90 (C. glabrata strains [3]; C. glabrata, inhibits 90% of strains) was 2 mg/L (≈ 1.83 µM). The MIC (C. glabrata strains [3]; [22]) was 2 (2×) and 1 and 4 and 8, the MFC50 (C. glabrata strains [4]; C. glabrata, kills 50% of strains) was 1 mg/L (≈ 0.915 µM) and the MFC90 (C. glabrata strains [4]; C. glabrata, kills 90% of strains) was 32 mg/L (≈ 29.3 µM). For the same compound, the MFC (C. glabrata strains [4]; [22]) was 32 (3×) and 16 and >32, the “MIC Range” value (C. krusei strains [5]; C. krusei strains, in µg/mL) was 0.5-16 and the MIC50 (C. krusei strains [5]; C. krusei, inhibits 50% of strains) was 1 mg/L (≈ 0.915 µM). For the same compound, the MIC90 (C. krusei strains [5]; C. krusei, inhibits 90% of strains) was 4 mg/L (≈ 3.66 µM), the MIC (C. krusei strains [5]; [23]) was 16 mg/L (≈ 14.6 µM) and the MFC50 (C. krusei strains [6]; C. krusei, kills 50% of strains) was 2 mg/L (≈ 1.83 µM). The MFC90 (C. krusei strains [6]; C. krusei, kills 90% of strains) was 8 mg/L (≈ 7.32 µM), the MFC (C. krusei strains [6]; [23]) was > 32 mg/L and the “MIC Range” value (C. parapsilosis; C. parapsilosis strains, in µg/mL) was 0.25-2. It also gave an MIC50 (C. parapsilosis; C. parapsilosis, inhibits 50% of strains) of 0.5 mg/L (≈ 0.457 µM), an MIC90 (C. parapsilosis; C. parapsilosis, inhibits 90% of strains) of 2 mg/L (≈ 1.83 µM) and an MIC (C. parapsilosis; individual C. parapsilosis strain with elevated MICs to non-polyene comparators (Table 22), in µg/mL) of 2. For the same compound, the “MIC Range” value (all Candida strains [7]; in µg/mL) was 0.06-16, the MIC50 (all Candida strains [7]; inhibits 50% of strains) was 0.5 mg/L (≈ 0.457 µM) and the MIC90 (all Candida strains [7]; inhibits 90% of strains) was 2 mg/L (≈ 1.83 µM). The MFC50 (all Candida strains [8]; kills 50% of strains) was 16 mg/L (≈ 14.6 µM), the MFC90 (all Candida strains [8]; kills 90% of strains) was > 32 mg/L and the “MIC Range” value (Cr. neoformans strains [9]; Cr. neoformans strains, 72 h, in µg/mL) was 1-16. For the same compound, the MIC50 (Cr. neoformans strains [9]; Cr. neoformans, inhibits 50% of strains) was 16 mg/L (≈ 14.6 µM), the MIC90 (Cr. neoformans strains [9]; Cr. neoformans, inhibits 90% of strains) was 16 mg/L (≈ 14.6 µM) and the MFC50 (Cr. neoformans strains [10]; kills 50% of strains) was > 32 mg/L. For the same compound, the MFC90 (Cr. neoformans strains [10]; kills 90% of strains) was > 32 mg/L, the “MIC Range” value ([11]; in µg/mL) was 0.125-8 and the MIC50 ([11]; inhibits 50% of strains) was 0.25 mg/L (≈ 0.229 µM). For the same compound, the MIC90 ([11]; inhibits 90% of strains) was 0.5 mg/L (≈ 0.457 µM), the “MIC Range” value ([12]; in µg/mL) was 0.125-2 and the MIC50 ([12]; inhibits 50% of strains) was 0.125 mg/L (≈ 0.114 µM). The MIC90 ([12]; inhibits 90% of strains) was 0.25 mg/L (≈ 0.229 µM), the MFC50 ([13]; kills 50% of strains) was > 32 mg/L and the MFC90 ([13]; kills 90% of strains) was > 32 mg/L. The MFC50 ([14]; kills 50% of strains) was > 32 mg/L, the MFC90 ([14]; kills 90% of strains) was > 32 mg/L and the MFC50 ([15]; kills 50% of strains) was > 32 mg/L. For the same compound, the MFC90 ([15]; kills 90% of strains) was > 32 mg/L, the “MIC Range” value (Fusarium strains; in µg/mL) was 1-64 and the MIC50 (Fusarium strains; inhibits 50% of strains) was 32 mg/L (≈ 29.3 µM). The MIC90 (Fusarium strains; inhibits 90% of strains) was 32 mg/L (≈ 29.3 µM), the MIC50 ([16]; inhibits 50% of strains) was > 32 mg/L and the MIC90 ([16]; inhibits 90% of strains) was > 32 mg/L. The MFC Range [17] was > 32 mg/L, the MFC50 ([17]; kills 50% of strains) was > 32 mg/L and the MFC90 ([17]; kills 90% of strains) was > 32 mg/L. The MIC50 (Penicillium strains [18]; inhibits 50% of strains) was 4 mg/L (≈ 3.66 µM), the MIC90 (Penicillium strains [18]; inhibits 90% of strains) was 32 mg/L (≈ 29.3 µM) and the MFC50 (Penicillium strains [19]; kills 50% of strains) was > 32 mg/L. The MFC90 (Penicillium strains [19]; kills 90% of strains) was > 32 mg/L, the MIC (A. fumigatus AF91) was 0.25 mg/L (≈ 0.229 µM) and the MFC (C. albicans SC5314) was 32 mg/L (≈ 29.3 µM). The “Brain tissue fungal burden, Mean log CFUs ± the standard deviation” value (Candida albicans SC5314) was 1.22 ± 1.87 log CFUs, the “Kidney tissue fungal burden, Mean log CFUs ± the standard deviation” value (Candida albicans SC5314) was 3.22 ± 1.26 log CFUs and the “Kidney tissue fungal burden, Mean log CFUs ± the standard deviation” value [20] was 3.11 ± 0.62 log CFUs. For the same compound, the “Lung tissue fungal burden, Mean log CFUs ± the standard deviation” value [20] was 3.41 ± 0.64 log CFUs.
